What was measured:
[1] = Cytotoxicity against LPS-activated […] cells assessed as cell viability at 30 uM after 24 hrs by MTT assay (reference value: 98.03 to 98.84%); assay type: toxicity, cell-based, Mus musculus, BV-2; conditions: read-out: Activity
[2] = Cytotoxicity against LPS-activated human BV2 cells assessed as cell viability at 1 uM after 24 hrs by MTT assay (reference value: 98.03 to 98.84%); assay type: toxicity, cell-based, Mus musculus, BV-2; conditions: read-out: Activity
[3] = Cytotoxicity against LPS-activated human BV2 cells assessed as cell viability at 100 uM after 24 hrs by MTT assay (reference value: 98.03 to 98.84%); assay type: toxicity, cell-based, Mus musculus, BV-2; conditions: read-out: Activity
[4] = Cytotoxicity against LPS-activated […] cells assessed as cell viability at 10 uM after 24 hrs by MTT assay (reference value: 98.03 to 98.84%); assay type: toxicity, cell-based, Mus musculus, BV-2; conditions: read-out: Activity
[5] = Antineuroinflammatory activity in […] cells assessed as inhibition of LPS-induced NO production after 24 hrs in presence of LPS by Griess reaction; assay type: functional, cell-based; conditions: BV-2, 24 h

Row | Structure (SMILES) | viability at 24 h, 30 µM [1] [%] | viability at 24 h, 1 µM [2] [%] | viability at 24 h, 100 µM [3] [%] | viability at 24 h, 10 µM [4] [%] | IC50 [5] [µM]
1 | Oc1cc(O)c2c(c1)O[C@H](c1cc(O)c(O)c(O)c1)[C@H](O)C2 [EPIGALLOCATECHIN] | 100 | 95.3 | 94.6 | 96.4 | > 100
2 | COc1cc([C@@H]2OC[C@H]3[C@@H]2CO[C@@H]3c2cc(OC)c(O[C@@H]3O[C@H](CO)[C@@H](O)[C@H](O)[C@H]3O)c(OC)c2)cc(OC)c1O | 102 | 92.4 | 100 | 91.6 | > 100
3 | O=C(O)/C=C\c1ccc(O[C@@H]2O[C@H](CO)[C@@H](O)[C@H](O)[C@H]2O)cc1 | 93 | 90.9 | 90 | 95.4 | > 100
4 | O=C(O)/C=C/c1ccc(O[C@@H]2O[C@H](CO)[C@@H](O)[C@H](O)[C@H]2O)cc1 | 101 | 101 | 94.7 | 98.4 | 9.08
5 | O=c1c(O[C@@H]2O[C@H](CO)[C@@H](O)[C@H](O)[C@H]2O[C@@H]2O[C@H](CO)[C@@H](O)[C@H](O)[C@H]2O)c(-c2ccc(O)c(O)c2)oc2cc(O)cc(O)c12 | 96.5 | 84.5 | 108 | 87.7 | > 100
6 | Oc1cc(O)c2c(c1)O[C@]1(c3ccc(O)c(O)c3)Oc3cc(O)c4c(c3[C@H]2[C@@H]1O)O[C@@]1(c2ccc(O)c(O)c2)Oc2cc(O)c3c(c2[C@@H]4[C@H]1O)O[C@@H](c1ccc(O)c(O)c1)[C@H](O)C3 | 104 | 94.4 | 112 | 97.3 | > 100
7 | COc1cc(CO)cc(OC)c1O[C@@H]1O[C@H](CO)[C@@H](O)[C@H](O)[C@H]1O | 90.7 | 91.1 | 87 | 94.7 | > 100
8 | C[C@@H]1O[C@@H](Oc2c(-c3cc(O)c(O)c(O)c3)oc3cc(O)cc(O)c3c2=O)[C@H](O)[C@H](O)[C@H]1O | 99.3 | 97.9 | 107 | 99.5 | > 100
9 | COc1cc([C@H]2OC[C@H]3[C@@H]2CO[C@@H]3c2cc(OC)c(O[C@@H]3O[C@H](CO)[C@@H](O)[C@H](O)[C@H]3O)c(OC)c2)cc(OC)c1O | 95.4 | 92.9 | 94.4 | 87.4 | 3.08
10 | Oc1cc(O)c2c(c1)O[C@H](c1cc(O)c(O)c(O)c1)[C@@H](O)C2 [GALLOCATECHIN] | 89.5 | 89.5 | 82.6 | 94.2 | > 100
11 | O=c1c(O)c(-c2ccc(O)c(O)c2)oc2cc(O)cc(O)c12 [QUERCETIN] | 96.9 | 87.5 | 99.7 | 90.7 | 39.5
12 | O=c1c(O[C@@H]2O[C@H](CO)[C@@H](O)[C@H](O)[C@H]2O)c(-c2ccc(O)c(O)c2)oc2cc(O)cc(O)c12 [ISOQUERCETIN] | 87.7 | 101 | 85.2 | 98.4 | 13.4
13 | COc1cc(-c2oc3cc(O)cc(O)c3c(=O)c2O[C@@H]2O[C@H](CO[C@@H]3O[C@@H](C)[C@H](O)[C@@H](O)[C@H]3O)[C@@H](O)[C@H](O)[C@H]2O)ccc1O [NARCISSIN] | 88.7 | 95.1 | 88.8 | 89.5 | > 100
14 | COc1cc([C@@H]2OC[C@H]3[C@@H]2CO[C@H]3c2cc(OC)c(O[C@@H]3O[C@H](CO)[C@@H](O)[C@H](O)[C@H]3O)c(OC)c2)cc(OC)c1O[C@@H]1O[C@H](CO)[C@@H](O)[C@H](O)[C@H]1O | 100 | 100 | 94.9 | 97.5 | > 100
15 | CN(C)c1ccc(O)c2c1C[C@H]1C[C@H]3[C@H](N(C)C)C(O)=C(C(N)=O)C(=O)[C@@]3(O)C(O)=C1C2=O [MINOCYCLINE] |  |  |  |  | 37
16 | C[C@@H]1O[C@@H](OC[C@H]2O[C@@H](Oc3c(-c4cc(O)c(O)c(O)c4)oc4cc(O)cc(O)c4c3=O)[C@H](O)[C@@H](O)[C@@H]2O)[C@H](O)[C@H](O)[C@H]1O | 86 | 92.2 | 86.9 | 87.1 | 74.7
17 | Oc1cc(O)c2c(c1)O[C@H](c1ccc(O)c(O)c1)[C@H](O)C2 [(-)-EPICATECHIN] | 88 | 84.4 | 93.2 | 87.6 | 47.4
18 | C[C@@H]1O[C@@H](OC[C@H]2O[C@@H](Oc3c(-c4ccc(O)cc4)oc4cc(O)cc(O)c4c3=O)[C@H](O)[C@@H](O)[C@@H]2O)[C@H](O)[C@H](O)[C@H]1O [NICOTIFLOROSIDE] | 92.1 | 98.7 | 113 | 110 | 88
19 | C[C@@H]1O[C@@H](OC[C@H]2O[C@@H](Oc3c(-c4ccc(O)c(O)c4)oc4cc(O)cc(O)c4c3=O)[C@H](O)[C@@H](O)[C@@H]2O)[C@H](O)[C@H](O)[C@H]1O [RUTIN] | 91 | 97.2 | 95 | 94.6 | 
20 | Oc1cc(O)c2c(c1)O[C@H](c1ccc(O)c(O)c1)[C@@H](O)C2 [CIANIDANOL] | 102 | 81.5 | 117 | 88.3 | 9.52
21 | COc1cc(/C=C/C(=O)O)cc(OC)c1O[C@@H]1O[C@H](CO)[C@@H](O)[C@H](O)[C@H]1O | 93.1 | 94.5 | 95.6 | 96.3 | > 100
22 | O=c1c(O)c(-c2cc(O)c(O)c(O)c2)oc2cc(O)cc(O)c12 [MYRICETIN] | 109 | 97.7 | 116 | 98.4 | > 100
23 | C[C@@H]1O[C@@H](Oc2c(-c3ccc(O)c(O)c3)oc3cc(O)cc(O)c3c2=O)[C@H](O)[C@H](O)[C@H]1O [QUERCITRIN] | 99.3 | 92 | 96.5 | 91 | > 100

From ChEMBL document CHEMBL3853339, “Bioactive phenols as potential neuroinflammation inhibitors from the leaves of Xanthoceras sorbifolia Bunge” (Bioorg Med Chem Lett, 2016)
